Peptide text beside a SMILES is read from it. * marks the point of attachment. Biotin = O=C1N[C@H]2[C@H](CS[C@H]2CCCCC(=O)*)N1
Biological target: T1, PDZ protein (GST-PDZ fusion) (Homo sapiens, UniProt Q5TCQ9)
T1 construct: made in house; host or cells: E. coli (DH5alpha, BL21 or JM109)
T1 sequence (Q5TCQ9 1-1481): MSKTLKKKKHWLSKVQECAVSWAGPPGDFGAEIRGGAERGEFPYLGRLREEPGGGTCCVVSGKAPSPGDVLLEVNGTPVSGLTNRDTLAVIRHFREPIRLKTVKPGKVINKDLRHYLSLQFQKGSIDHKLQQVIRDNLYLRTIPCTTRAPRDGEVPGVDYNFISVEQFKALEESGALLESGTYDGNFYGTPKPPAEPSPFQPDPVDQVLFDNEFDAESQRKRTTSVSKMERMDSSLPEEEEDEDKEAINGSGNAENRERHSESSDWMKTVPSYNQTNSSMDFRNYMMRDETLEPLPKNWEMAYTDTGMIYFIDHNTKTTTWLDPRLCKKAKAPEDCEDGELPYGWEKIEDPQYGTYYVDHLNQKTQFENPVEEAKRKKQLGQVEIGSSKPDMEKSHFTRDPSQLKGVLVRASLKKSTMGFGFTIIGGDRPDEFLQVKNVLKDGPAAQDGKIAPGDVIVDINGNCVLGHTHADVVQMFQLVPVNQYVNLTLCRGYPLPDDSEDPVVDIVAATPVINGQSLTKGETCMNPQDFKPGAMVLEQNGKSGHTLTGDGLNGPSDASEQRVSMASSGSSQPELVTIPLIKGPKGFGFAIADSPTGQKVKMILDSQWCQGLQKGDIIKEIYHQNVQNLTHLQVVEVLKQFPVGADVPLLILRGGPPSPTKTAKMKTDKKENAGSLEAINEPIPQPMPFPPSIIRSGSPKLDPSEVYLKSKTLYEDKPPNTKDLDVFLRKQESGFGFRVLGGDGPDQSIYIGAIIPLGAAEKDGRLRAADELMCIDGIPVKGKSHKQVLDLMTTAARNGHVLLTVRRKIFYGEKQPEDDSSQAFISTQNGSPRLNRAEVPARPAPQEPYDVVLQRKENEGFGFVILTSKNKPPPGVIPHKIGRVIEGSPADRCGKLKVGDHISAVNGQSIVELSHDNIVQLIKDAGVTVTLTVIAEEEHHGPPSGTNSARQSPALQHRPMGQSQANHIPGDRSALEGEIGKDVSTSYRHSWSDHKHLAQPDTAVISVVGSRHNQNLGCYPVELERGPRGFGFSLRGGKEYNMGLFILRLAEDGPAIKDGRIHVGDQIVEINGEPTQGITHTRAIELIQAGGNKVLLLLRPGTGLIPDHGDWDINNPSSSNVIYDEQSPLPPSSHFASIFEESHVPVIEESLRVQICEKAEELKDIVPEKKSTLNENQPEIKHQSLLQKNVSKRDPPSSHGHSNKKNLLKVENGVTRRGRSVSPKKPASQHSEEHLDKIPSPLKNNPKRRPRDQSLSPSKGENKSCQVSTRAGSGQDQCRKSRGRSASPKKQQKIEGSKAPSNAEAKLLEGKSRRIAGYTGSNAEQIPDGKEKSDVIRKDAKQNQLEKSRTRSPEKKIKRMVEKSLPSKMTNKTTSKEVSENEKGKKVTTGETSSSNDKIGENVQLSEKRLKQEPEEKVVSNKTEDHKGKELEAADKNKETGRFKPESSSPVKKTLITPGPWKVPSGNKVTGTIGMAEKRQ
Test: G' assay (10 uM PL peptide), results of TABLE 7 and TABLE 12
Type: binding
Summary of the method: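 Same steps as the G-zero format, apart from a peptide concentration of 10 uM in place of 20 uM in step 2. Amino-terminally biotinylated PL peptides bind GST-PDZ fusions, and retained peptide is quantified by 450 nm absorbance.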

Row | Compound | Classification (PDZ KIAA1634, PDZ Domain 1) | Classification (PDZ KIAA1634, PDZ Domain 2) | Classification (PDZ KIAA1634, PDZ Domain 5) | Classification (PDZ KIAA1634, PDZ Domain 4)
1 | CC(C)C[C@H](NC(=O)[C@H](Cc1c[nH]c2ccccc12)NC(=O)[C@H](Cc1c[nH]cn1)NC(=O)[C@H](CCCNC(=N)N)NC(=O)[C@H](CC(C)C)NC(=O)[C@@H](NC(=O)[C@H](Cc1ccccc1)NC(=O)[C@H](CCC(N)=O)NC(=O)[C@H](CCCNC(=N)N)NC(=O)[C@@H](NC(=O)[C@H](CCC(=O)O)NC(=O)CNC(=O)[C@H](CCCNC(=N)N)NC(=O)[C@H](CC(=O)O)NC(=O)[C@@H](NC(=O)[C@H](CC(C)C)NC(=O)[C@H](CCC(=O)O)NC(=O)[C@H](CCCNC(=N)N)NC(=O)CCCC[C@@H]1SC[C@@H]2NC(=O)N[C@@H]21)C(C)C)C(C)C)[C@@H](C)O)C(=O)N[C@@H](CCCCN)C(=O)N[C@H](C(=O)O)C(C)C [Dopamine transporter (Na+-dependent)] (Biotin-RELVDRGEVRQFTLRHWLKV-OH; C-terminus assumed) | 3 (A450 nm 2-3) | – | – | –
2 | CC[C@H](C)[C@H](NC(=O)[C@H](CO)NC(=O)[C@@H](NC(=O)[C@H](Cc1ccccc1)NC(=O)[C@H](CO)NC(=O)CCCC[C@@H]1SC[C@@H]2NC(=O)N[C@@H]21)[C@@H](C)O)C(=O)N[C@@H](CC(C)C)C(=O)N[C@H](C(=O)N[C@@H](CS)C(=O)N[C@@H](Cc1c[nH]cn1)C(=O)N[C@@H](CCC(N)=O)C(=O)N[C@@H](CCCNC(=N)N)C(=O)N[C@@H](CCCNC(=N)N)C(=O)N[C@H](C(=O)N[C@@H](CCC(N)=O)C(=O)N[C@@H](CCCNC(=N)N)C(=O)N[C@@H](CCCCN)C(=O)N[C@@H](CCC(=O)O)C(=O)N[C@H](C(=O)N[C@H](C(=O)N[C@@H](C)C(=O)O)C(C)C)[C@@H](C)O)[C@@H](C)O)[C@@H](C)O [GluR5-2 (rat)] | 5 (A450 nm of 4 more than 2× repeated) | – | – | –
3 | CC(C)C[C@H](NC(=O)[C@H](C)NC(=O)[C@@H](NC(=O)[C@H](CCC(=O)O)NC(=O)[C@H](CCCNC(=N)N)NC(=O)[C@H](CCCNC(=N)N)NC(=O)CNC(=O)[C@H](CCC(N)=O)NC(=O)[C@H](CC(C)C)NC(=O)[C@H](CCCNC(=N)N)NC(=O)CNC(=O)CNC(=O)[C@H](CCCNC(=N)N)NC(=O)[C@H](C)NC(=O)[C@H](CO)NC(=O)[C@H](CCCNC(=N)N)NC(=O)CNC(=O)CNC(=O)[C@H](C)NC(=O)[C@H](C)NC(=O)CCCC[C@@H]1SC[C@@H]2NC(=O)N[C@@H]21)[C@@H](C)O)C(=O)O [HPV E6 33 (modified)] (Biotin-AAGGRSARGGRLQGRRETAL-OH; C-terminus assumed) | 5 (A450 nm of 4 more than 2× repeated) | – | – | –
4 | CC(C)C[C@H](NC(=O)[C@H](CCCNC(=N)N)NC(=O)CNC(=O)CNC(=O)[C@H](CCCNC(=N)N)NC(=O)[C@H](C)NC(=O)[C@@H]1CCCN1C(=O)[C@H](CCCNC(=N)N)NC(=O)CNC(=O)CNC(=O)[C@@H](NC(=O)[C@H](C)NC(=O)CCCC[C@@H]1SC[C@@H]2NC(=O)N[C@@H]21)C(C)C)C(=O)N[C@@H](CCC(N)=O)C(=O)NCC(=O)N[C@@H](CCCNC(=N)N)C(=O)N[C@@H](CCCNC(=N)N)C(=O)N[C@@H](CCC(N)=O)C(=O)N[C@H](C(=O)N[C@@H](CCC(N)=O)C(=O)N[C@H](C(=O)O)C(C)C)[C@@H](C)O [HPV E6 58 (modified)] (Biotin-AVGGRPARGGRLQGRRQTQV-OH; C-terminus assumed) | 5 (A450 nm of 4 more than 2× repeated) | 1 (A450 nm 0-1) | 1 (A450 nm 0-1) | –
5 | CSCC[C@H](NC(=O)[C@H](C)NC(=O)[C@H](CCCNC(=N)N)NC(=O)CNC(=O)[C@@H](NC(=O)[C@H](Cc1c[nH]c2ccccc12)NC(=O)[C@H](CCCNC(=N)N)NC(=O)CNC(=O)CCCC[C@@H]1SC[C@@H]2NC(=O)N[C@@H]21)[C@@H](C)O)C(=O)N[C@@H](CO)C(=O)N[C@@H](C)C(=O)N[C@@H](Cc1c[nH]c2ccccc12)C(=O)N[C@@H](CCCCN)C(=O)N1CCC[C@H]1C(=O)N[C@H](C(=O)N[C@@H](CCCNC(=N)N)C(=O)N[C@@H](CCCNC(=N)N)C(=O)N[C@@H](CCC(=O)O)C(=O)N[C@H](C(=O)N[C@@H](CCC(=O)O)C(=O)N[C@H](C(=O)O)C(C)C)[C@@H](C)O)[C@@H](C)O [HPV E6 #35 (modified)] (Biotin-GRWTGRAMSAWKPTRRETEV-OH; C-terminus assumed) | 5 (A450 nm of 4 more than 2× repeated) | 3 (A450 nm 2-3) | 3 (A450 nm 2-3) | 2 (A450 nm 1-2)
6 | CC(C)C[C@H](NC(=O)[C@H](C)NC(=O)[C@H](CO)NC(=O)CNC(=O)[C@@H](NC(=O)CCCC[C@@H]1SC[C@@H]2NC(=O)N[C@@H]21)[C@@H](C)O)C(=O)N[C@@H](CCC(N)=O)C(=O)N[C@@H](C)C(=O)N[C@@H](Cc1c[nH]c2ccccc12)C(=O)N[C@@H](CCCNC(=N)N)C(=O)N[C@@H](Cc1c[nH]cn1)C(=O)N[C@H](C(=O)N[C@@H](CO)C(=O)N[C@@H](CCCNC(=N)N)C(=O)N[C@@H](CCC(N)=O)C(=O)N[C@@H](C)C(=O)N[C@H](C(=O)N[C@@H](CCC(=O)O)C(=O)N[C@@H](CO)C(=O)N[C@H](C(=O)N[C@H](C(=O)O)C(C)C)[C@@H](C)O)[C@@H](C)O)[C@@H](C)O [HPV E6 #66 (modified)] (Biotin-TGSALQAWRHTSRQATESTV-OH; C-terminus assumed) | 5 (A450 nm of 4 more than 2× repeated) | 1 (A450 nm 0-1) | – | –
7 | CC[C@H](C)[C@H](NC(=O)CNC(=O)[C@H](CO)NC(=O)[C@H](Cc1ccccc1)NC(=O)[C@@H](NC(=O)[C@H](CS)NC(=O)CNC(=O)CNC(=O)[C@H](C)NC(=O)[C@@H]1CCCN1C(=O)[C@@H](NC(=O)[C@@H]1CCCN1C(=O)CCCC[C@@H]1SC[C@@H]2NC(=O)N[C@@H]21)[C@@H](C)CC)[C@@H](C)O)C(=O)N[C@@H](Cc1ccccc1)C(=O)N1CCC[C@H]1C(=O)N[C@H](C(=O)N[C@@H](CC(C)C)C(=O)N[C@H](C(=O)N[C@@H](CO)C(=O)N1CCC[C@H]1C(=O)N[C@@H](CC(C)C)C(=O)O)[C@@H](C)O)[C@@H](C)O [KIA 1481] (Biotin-PIPAGGCTFSGIFPTLTSPL-OH; C-terminus assumed) | 2 (A450 nm 1-2) | 1 (A450 nm 0-1) | 1 (A450 nm 0-1) | –
8 | CC[C@H](C)[C@H](NC(=O)[C@H](CCC(=O)O)NC(=O)[C@H](CO)NC(=O)[C@H](CCC(=O)O)NC(=O)[C@H](CCCNC(=N)N)NC(=O)[C@H](CCCNC(=N)N)NC(=O)[C@H](CC(C)C)NC(=O)[C@@H]1CCCN1C(=O)[C@H](CCCNC(=N)N)NC(=O)[C@@H]1CCCN1C(=O)[C@H](CCC(=O)O)NC(=O)[C@H](CC(C)C)NC(=O)[C@@H]1CCCN1C(=O)[C@@H](NC(=O)[C@H](CO)NC(=O)[C@H](C)NC(=O)[C@H](CCC(N)=O)NC(=O)[C@H](CC(N)=O)NC(=O)[C@H](Cc1c[nH]cn1)NC(=O)[C@H](CC(C)C)NC(=O)CCCC[C@@H]1SC[C@@H]2NC(=O)N[C@@H]21)C(C)C)C(=O)O [Kir2.1 (inwardly rect. K+ channel)] (Biotin-LHNQASVPLEPRPLRRESEI-OH; C-terminus assumed) | 1 (A450 nm 0-1) | – | – | –
9 | CC(C)C[C@H](NC(=O)CNC(=O)[C@@H](NC(=O)[C@H](CO)NC(=O)[C@H](CC(N)=O)NC(=O)[C@H](Cc1ccccc1)NC(=O)CNC(=O)[C@H](C)NC(=O)[C@H](C)NC(=O)[C@H](Cc1ccccc1)NC(=O)[C@@H](NC(=O)CCCC[C@@H]1SC[C@@H]2NC(=O)N[C@@H]21)[C@@H](C)O)[C@@H](C)O)C(=O)N1CCC[C@H]1C(=O)N[C@@H](Cc1c[nH]cn1)C(=O)N[C@@H](CO)C(=O)N[C@H](C(=O)N[C@H](C(=O)N[C@@H](CCCNC(=N)N)C(=O)N[C@H](C(=O)O)C(C)C)[C@@H](C)O)[C@@H](C)O [Neuroligin] (Biotin-TFAAGFNSTGLPHSTTRV-OH; C-terminus assumed) | 4 (A450 nm 3-4) | 2 (A450 nm 1-2) | – | –
